Assay results reported in patent US20240174639A1, “PYRIDINE DERIVATIVES USEFUL AS HCN2 MODULATORS” (King's College London, priority 2021, published 2024).
pIC50: −log10 of the molar value. Counter-ions that a name gives are not always drawn.

Tests used:
WT Black6 strain mice = test: Mouse neuropathic pain model (partial sciatic nerve ligation), von Frey filament (Example 57); type: in vivo; details: day 5 after PSNL
Method: The compounds of Example 2 and Example 4 were tested in a mouse neuropathic pain model using WT Black6 strain mice. The model used was analogous to the model described in Seltzer Z, Dubner R, & Shir Y (1990), A novel behavioural model of neuropathic pain disorders produced in rats by partial sciatic nerve injury, Pain 43: 205-218). […] Sci Transl Med 9: eaam6072.
The test compounds were administered i.p. to the mice on day 5 following partial sciatic nerve ligation surgery, average data from 3-4 mice. The mechanical pain threshold was measured by manual von Frey filament applied to hind paw on the operated side, using the “up-down” method. The test compounds were compared to ivabradine at 5 mg/kg i.p. and i.p. injection of vehicle.

HCN2 = biological target: T1, HCN2 (Homo sapiens, UniProt Q9UL51); test: HCN2 assay using PatchXpress 7000A (Example 50A); type: cell-based; details: for pIC50: PatchXpress protocol (PX); for selective for HCN2 over HCN4: PatchXpress protocol (PX) assay
T1 sequence (Q9UL51 1-889): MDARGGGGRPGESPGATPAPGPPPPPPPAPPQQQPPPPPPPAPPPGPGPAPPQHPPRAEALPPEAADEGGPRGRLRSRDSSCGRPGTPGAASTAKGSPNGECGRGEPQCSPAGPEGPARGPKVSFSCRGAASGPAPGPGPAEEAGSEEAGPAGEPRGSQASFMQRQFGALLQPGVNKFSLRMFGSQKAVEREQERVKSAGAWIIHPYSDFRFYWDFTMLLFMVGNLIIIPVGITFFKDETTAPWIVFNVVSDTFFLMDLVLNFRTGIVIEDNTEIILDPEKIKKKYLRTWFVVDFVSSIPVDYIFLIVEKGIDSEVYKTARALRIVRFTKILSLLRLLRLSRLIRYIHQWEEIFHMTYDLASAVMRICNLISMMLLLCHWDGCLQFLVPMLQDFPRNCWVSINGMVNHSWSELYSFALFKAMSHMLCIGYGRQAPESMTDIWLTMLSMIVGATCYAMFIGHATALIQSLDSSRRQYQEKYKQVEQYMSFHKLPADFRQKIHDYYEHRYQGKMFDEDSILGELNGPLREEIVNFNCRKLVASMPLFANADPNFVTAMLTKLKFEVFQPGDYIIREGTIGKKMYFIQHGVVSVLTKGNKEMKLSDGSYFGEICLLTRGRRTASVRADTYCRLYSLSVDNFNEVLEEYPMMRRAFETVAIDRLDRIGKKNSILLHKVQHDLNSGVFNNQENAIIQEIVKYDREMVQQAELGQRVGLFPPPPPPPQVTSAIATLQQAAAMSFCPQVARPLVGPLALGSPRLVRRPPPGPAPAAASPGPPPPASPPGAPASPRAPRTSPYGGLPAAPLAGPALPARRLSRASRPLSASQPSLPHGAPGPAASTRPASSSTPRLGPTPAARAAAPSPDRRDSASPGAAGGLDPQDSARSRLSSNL
Text: (§1) Solutions for recording HON currents were:
For HCN1 and HCN2, the pulse protocol involved stepping from a holding potential of −30 mV to −110 mV (see FIG. 1A) for 2 seconds to evoke the current. The membrane voltage was then stepped back to −30 mV for a further 8 seconds. This sequence was evoked repeatedly every 10 seconds throughout the experiment, starting prior to drug (Control A) and during cumulative additions of 5 increasing compound concentrations, then finally a 100% inhibiting concentration of cesium chloride (CsCl, 3 mM).
(§2) The peak inward current measured at the end of the pulse to −110 mV (HCN1 and HCN2) or −130 mV (HCN4) was measured and any leak current subtracted to calculate the HCN current. The HCN current amplitude was measured after each control or compound addition and normalized to the control amplitude (Control A).
(§3) All experiments were performed at room temperature (approximately 22° C.).
(§4) Each test compound concentration was applied to the cell for seven (7) minutes, at which point the next cumulative concentration was applied. 3 mM CsCl was applied to each cell for 2 minutes at the end of each experiment (Control B) to determine 100% inhibition level of the HCN current.

Black6 strain mice = test: Bradycardia testing, heart rate by MouseOx pulse oximeter (Example 58); type: in vivo; details: awake Black6 mice
Method: Test compounds were administered i.p. to awake, behaving, Black6 strain mice together with a vehicle only control arm. Heart rate in the mice were measured with MouseOx pulse oximeter.
The compound of Example 2 was administered to awake, behaving, Black6 strain mice at doses ranging from 0.05 mg/kg to 2 mg/kg. The effect of the compound of Example 2 on heart beat is shown in FIG. 11 compared to ivabradine administered at a dose of 5 mg/kg i.p, and a vehicle control.

HCN4 = biological target: T2, HCN4 (Homo sapiens, UniProt Q9Y3Q4); test: HCN4 assay using PatchXpress 7000A (Example 50A); type: cell-based; details: PatchXpress protocol (PX)
T2 sequence (Q9Y3Q4 1-1203): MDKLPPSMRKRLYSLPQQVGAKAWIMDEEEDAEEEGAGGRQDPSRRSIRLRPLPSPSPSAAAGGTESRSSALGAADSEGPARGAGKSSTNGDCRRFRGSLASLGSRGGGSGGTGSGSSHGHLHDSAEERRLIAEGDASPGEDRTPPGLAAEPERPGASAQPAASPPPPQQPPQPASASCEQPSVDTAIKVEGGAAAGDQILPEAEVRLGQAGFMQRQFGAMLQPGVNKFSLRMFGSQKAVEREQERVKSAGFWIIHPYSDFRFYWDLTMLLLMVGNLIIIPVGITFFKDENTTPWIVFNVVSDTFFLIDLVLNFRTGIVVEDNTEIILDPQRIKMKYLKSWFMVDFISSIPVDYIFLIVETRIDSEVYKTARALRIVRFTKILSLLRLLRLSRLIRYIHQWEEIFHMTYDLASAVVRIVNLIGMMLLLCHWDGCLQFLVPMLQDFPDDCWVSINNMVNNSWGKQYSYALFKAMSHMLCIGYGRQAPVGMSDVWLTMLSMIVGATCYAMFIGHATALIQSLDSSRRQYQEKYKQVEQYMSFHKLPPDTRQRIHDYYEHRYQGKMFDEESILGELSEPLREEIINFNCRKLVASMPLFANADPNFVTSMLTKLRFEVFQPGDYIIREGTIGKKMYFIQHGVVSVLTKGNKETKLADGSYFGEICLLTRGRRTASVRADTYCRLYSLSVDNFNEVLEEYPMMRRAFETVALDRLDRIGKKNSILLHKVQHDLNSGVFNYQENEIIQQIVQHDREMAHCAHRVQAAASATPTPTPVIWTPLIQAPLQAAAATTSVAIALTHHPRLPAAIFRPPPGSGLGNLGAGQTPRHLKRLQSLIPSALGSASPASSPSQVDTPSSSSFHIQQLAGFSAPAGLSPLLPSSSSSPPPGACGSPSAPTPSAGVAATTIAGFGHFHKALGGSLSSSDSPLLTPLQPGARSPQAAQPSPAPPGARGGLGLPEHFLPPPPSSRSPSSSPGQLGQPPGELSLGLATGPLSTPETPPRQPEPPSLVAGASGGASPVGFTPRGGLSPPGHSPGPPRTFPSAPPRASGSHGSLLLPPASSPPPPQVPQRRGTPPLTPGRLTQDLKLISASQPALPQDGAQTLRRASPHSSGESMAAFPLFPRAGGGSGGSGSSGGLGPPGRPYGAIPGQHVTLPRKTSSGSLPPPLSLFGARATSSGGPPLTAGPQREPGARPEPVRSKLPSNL
Method: as §1
For HCN4, the pulse protocol involved stepping from a holding potential of −30 mV to −130 mV (see FIG. 1B) for 4 seconds to evoke the current.
as §2, §3, §4

guinea pigs [1] = test: Tinnitus, noise-exposure model, GPIAS test (Example 54); type: in vivo
Text: (§5) Tinnitus in guinea pigs was monitored using the gap induced inhibition of the acoustic startle (GPIAS) test (see FIG. 5). GPIAS is reduced when tinnitus was present; see Berger, J. I. et al. Effects of the cannabinoid CB1 agonist ACEA on salicylate ototoxicity, hyperacusis and tinnitus in guinea pigs. Hearing research, (2017), and Coomber, B. et al. Neural changes accompanying tinnitus following unilateral acoustic trauma in the guinea pig. Eur J Neurosci 40, 2427-2441, (2014).
(§6) In FIG. 5, sound stimulus (above) and corresponding pinna reflex (below) are shown in freely moving guinea pigs. Stimuli with no gap and gap are presented in a randomised order. Traces contaminated by movement (the upper trace in “no gap”) were removed before analysis.
The noise-exposure model is more clinically relevant than the salicylate model, as it parallels a common cause of tinnitus in humans. A second important point is that it is long-term, while tinnitus induced by salicylate is rapidly reversed following salicylate exposure.
GPIAS returns following drug wash-out (see bar D in FIG. 7).

guinea pigs [2] = test: Tinnitus, short-term salicylate model, GPIAS test (Example 54); type: in vivo; details: salicylate 350 mg/kg i.p., 2 h, ivabradine 5 mg/kg s.c.
Text: as §5, §6
Tinnitus was induced within 1-2 hours in humans by high doses of salicylate. A similar short-term tinnitus model was implemented in guinea pigs by i.p. injection of salicylate. In all animals, salicylate caused behavioural inhibition of GPIAS (see bar 2 in FIG. 6).
Salicylate (350 mg/kg, i.p.) impairs behavioural gap detection 2 h after salicylate administration (see bar 2 in of FIG. 6). Gap detection was restored by blocking HCN channels with ivabradine (5 mg/kg, s.c.).

Black6 mice = details: mouse, in vivo, ip; cited from earlier work
[3] = Evaluation of CNS penetration: plasma, brain and auditory nerve levels (Example 55); type: in vivo; details: other: injection, guinea pig, 30 min after injection, preliminary, n=2
Method: Ivabradine in guinea pig plasma, brain (somatosensory cortex) and auditory nerve were assayed at 30 min after injection, the time used in Example 130. Ratios of total concentrations in preliminary experiments for plasma:brain:auditory nerve were 1:0.12:0.57 (n=2). The small amount (12% of plasma level) detected in brain is largely accounted for by the presence of ivabradine within the vascular supply of the brain. As in other species, therefore, ivabradine is strongly excluded from guinea pig brain because of its hydrophilicity and Pgp substrate activity; see Young, G. T., Emery, E. C., Mooney, […]. […] Pain 155, 1708-1719, (2014).

adult mice = type: in vivo; details: tone pulses 3 kHz to 42 kHz

| Structure (SMILES) | mechanical analgesia (von Frey pain threshold) (WT Black6 strain mice; 0.2 mg/kg i.p.) | pIC50 (HCN2) | selective for HCN2 over HCN4 (HCN2) | bradycardia (heart rate) (Black6 strain mice; 0.2 mg/kg i.p.) | pIC50 (HCN4) | mechanical analgesia (von Frey pain threshold) (WT Black6 strain mice; 2 mg/kg i.p.) | mechanical analgesia (von Frey pain threshold) (WT Black6 strain mice; 10 mg/kg i.p.) | bradycardia (heart rate) (Black6 strain mice; 2 mg/kg i.p.) | effect on reduced GPIAS following noise exposure (guinea pigs [1]; guinea pigs with impaired GPIAS after unilateral noise exposure, 5 mg/kg s.c.) | effect on GPIAS in control experiments (guinea pigs [1]; noise-exposed guinea pigs showing no behavioural evidence of tinnitus, n=3) | effect on GPIAS (behavioural gap detection) (guinea pigs [2]) | therapeutic window between analgesia and bradycardia (Black6 mice) | Kp at 30 min ([3]; auditory nerve / plasma, read-out: ratio of total concentrations auditory nerve:plasma) | Kp at 0.5 h ([3]; brain (somatosensory cortex) / plasma, somatosensory cortex, read-out: ratio of total concentrations brain:plasma) | effect on ABR threshold or latency (adult mice) |
| --- | --- | --- | --- | --- | --- | --- | --- | --- | --- | --- | --- | --- | --- | --- | --- |
| Cc1ccc(C#N)nc1C[C@H](N)c1ncccc1-n1ncc2ccccc21 [Example 2, (S)-6-{2-[3-(1H-indazol-1-yl)pyridine-2-yl]-2-aminoethyl}-5-methylpyridin-2-carbonitrile hydrochloride] | full analgesia | 7.52 | 21 times | minimal bradycardia | 6.30 | – | – | – | – | – | – | – | – | – | – |
| N[C@@H](Cc1ccccn1)c1ncccc1-n1ncc2ccccc21 [Example 4, (S)-1-[3-(1H-indazole-1-yl)pyridine-2-yl]-2-(pyridine-2-yl)ethan-1-amine hydrochloride] | – | 5.80 | more than 19 times | – | < 4.52 | maximal analgesia | maximal analgesia | minimal bradycardia | – | – | – | – | – | – | – |
| COc1cc2c(cc1OC)CC(=O)N(CCCN(C)C[C@H]1Cc3cc(OC)c(OC)cc31)CC2 [ivabradine] | – | – | – | – | – | – | – | – | rapidly and completely reversed | without effect on GPIAS | reversed GPIAS | little therapeutic window | 0.57 | 0.12 | no significant difference |
